Data: US20260138949A1, “NOVEL COMPOUND AS PHOSPHOLIPASE D INHIBITOR AND USE THEREOF” (UIF (UNIVERSITY INDUSTRY FOUNDATION), YONSEI UNIVERSITY, priority 2022, published 2026)

These molecules were tested on phospholipase D1 (assay: PLD activity in HCT116 cells ([3H]phosphatidylbutanol, TLC)). Settings: compound 10 μM, cells without the compound = 100%.
Type: cell-based, human
Method: To evaluate the inhibitory effect of the compounds according to the present invention on phospholipase D1 activity, experiments were conducted as follows.
For the analysis of PLD activity in cells, human colon cancer cell line (HCT116) was cultured in a 6-well plate at 37° C. for 24 hours, washed twice with phosphate-buffered saline (PBS), and then replaced with medium containing [^3H]myristate and cultured for 24 hours. After the culture, the cells were washed three times with PBS, treated with 1-butanol, and the drug was added to a final concentration of 10 μM. The cells were trypsinized and suspended, and the amount of [^3H]phosphatidylbutanol produced in the cell suspension was measured and evaluated for PLD activity using thin layer chromatography (TLC), and the results are shown in Table 1 below.
The Remaining activity % at 10 μM in Table 1 is calculated by setting the amount of [^3H]phosphatidylbutanol produced in cells without the compound as 100% and calculating the amount of [^3H]phosphatidylbutanol produced in cells treated with the compound as a percentage. Therefore, the lower the value of Remaining activity %, the higher the PLD inhibitory activity.

With `O=C(Cc1c[nH]c2ccccc12)Nc1ccc(F)cc1` [Example 1-14, N-(4-fluorophenyl)-2-(1H-indol-3-yl)acetamide] the “Remaining activity % at 10 μM” value was “not active”.
In the case of `COc1ccc(NC(=O)CCc2c[nH]c3ccccc23)cc1OC` [Example 1-70, N-(3,4-dimethoxyphenyl)-3-(1H-indol-3-yl)propanamide], the “Remaining activity % at 10 μM” value is reported as “not active”.
For `O=C(Cc1c[nH]c2ccccc12)Nc1cccc([N+](=O)[O-])c1` [Example 1-30, 2-(1H-indol-3-yl)-N-(3-nitrophenyl)acetamide], the “Remaining activity % at 10 μM” value was “not active”.
For `O=C(Cc1c[nH]c2ccccc12)Nc1ccc(O)cc1` [Example 1-24, N-(4-hydroxyphenyl)-2-(1H-indol-3-yl)acetamide], the “Remaining activity % at 10 μM” value was “not active”.
In the case of `O=C(Nc1ccc(Cl)c(Cl)c1)c1cc2ccccc2[nH]1` [Example 1-86, N-(3,4-dichlorophenyl)-1H-indole-2-carboxamide], the “Remaining activity % at 10 μM” value is reported as “not active”.
`O=C(CCc1c[nH]c2ccccc12)Nc1ccc(F)cc1` [Example 1-63, N-(4-fluorophenyl)-3-(1H-indol-3-yl)propanamide] was tested, and the “Remaining activity % at 10 μM” value was “not active”.
With `O=C(CCCc1c[nH]c2ccccc12)Nc1ccc(F)cc1` [Example 1-75, N-(4-fluorophenyl)-4-(1H-indol-3-yl)butanamide] the “Remaining activity % at 10 μM” value was “not active”.
For `O=C(CCc1c[nH]c2ccccc12)Nc1ccc(Cl)c(Cl)c1` [Example 1-69, N-(3,4-dichlorophenyl)-3-(1H-indol-3-yl)propanamide], the “Remaining activity % at 10 μM” value was “not active”.
For `O=C(Cc1c[nH]c2ccccc12)NCCc1ccccc1` [Example 1-59, 2-(1H-indol-3-yl)-N-phenethylacetamide], the “Remaining activity % at 10 μM” value was “not active”.

Compared with `COc1ccccc1CNC(=O)Cc1c[nH]c2ccccc12` [Example 1-50, 2-(1H-indol-3-yl)-N-(2-methoxybenzyl)acetamide], `O=C(Cc1c[nH]c2ccccc12)NCc1ccccc1F` [Example 1-35, N-(2-fluorobenzyl)-2-(1H-indol-3-yl)acetamide] is higher in “Remaining activity % at 10 μM” value: 79.27% for the first, 83.61% for the second.

First: COC(=O)c1ccc(CNC(=O)Cc2c[nH]c3ccccc23)cc1 [Example 1-38, methyl 4-((2-(1H-indol-3-yl)acetamido)methyl)benzoate]
Second: COC(=O)c1ccc(NC(=O)Cc2c[nH]c3ccccc23)cc1 [Example 1-25, methyl 4-(2-(1H-indol-3-yl)acetamido)benzoate]
The “Remaining activity % at 10 μM” value of the first is higher: 99.81% for the first, 66.73% for the second.

Going from `O=C(Cc1c[nH]c2ccccc12)NCc1ccc(C(F)(F)F)cc1` [Example 1-43, 2-(1H-indol-3-yl)-N-(4-(trifluoromethyl)benzyl)acetamide] to `O=C(Cc1c[nH]c2ccccc12)Nc1ccc(C(F)(F)F)cc1` [Example 1-26, 2-(1H-indol-3-yl)-N-(4-(trifluoromethyl)phenyl)acetamide], the “Remaining activity % at 10 μM” value rises from 48.92% to 82.43%.

First: O=C(CCc1c[nH]c2ccccc12)Nc1ccccc1F [Example 1-61, N-(2-fluorophenyl)-3-(1H-indol-3-yl)propanamide]
Second: O=C(CCc1c[nH]c2ccccc12)Nc1cccc(F)c1 [Example 1-62, N-(3-fluorophenyl)-3-(1H-indol-3-yl)propanamide]
The “Remaining activity % at 10 μM” value of the first is lower: 45.47% for the first, 49.36% for the second.

First: O=C(Cc1c[nH]c2ccccc12)Nc1ccc(O)c(O)c1 [Example 1-106, N-(3,4-dihydroxyphenyl)-2-(1H-indol-3-yl)acetamide]
Second: O=C(Cc1c[nH]c2ccccc12)Nc1cccc(O)c1 [Example 1-8, N-(3-hydroxyphenyl)-2-(1H-indol-3-yl)acetamide]
The “Remaining activity % at 10 μM” value of the first is lower: 62.00% for the first, 65.7% for the second.

Compared with `O=C(Cc1c[nH]c2ccccc12)NCc1ccc(Cl)cc1` [Example 1-49, N-(4-chlorobenzyl)-2-(1H-indol-3-yl)acetamide], `CC(C)(C)c1ccc(CNC(=O)Cc2c[nH]c3ccccc23)cc1` [Example 1-41, N-(4-tert-butylbenzyl)-2-(1H-indol-3-yl)acetamide] is higher in “Remaining activity % at 10 μM” value: 59.74% for the first, 59.99% for the second.

Going from `COC(=O)c1ccc2[nH]c(C(=O)Nc3cc(C(F)(F)F)cc(C(F)(F)F)c3)cc2c1` [Example 1-100, methyl 2-((3,5-bis(trifluoromethyl)phenyl)carbamoyl)-1H-indole-5-carboxylate] to `O=C(Oc1cc(C(F)(F)F)cc(C(F)(F)F)c1)c1cc2cc(F)ccc2[nH]1` [Example 1-118, 3,5-bis(trifluoromethyl)phenyl 5-fluoro-1H-indole-2-carboxylate], the “Remaining activity % at 10 μM” value rises from 46.12% to 49.17%.

Compared with `COc1ccc(NC(=O)c2cc3ccccc3[nH]2)cc1OC` [Example 1-87, N-(3,4-dimethoxyphenyl)-1H-indole-2-carboxamide], `O=C(Nc1ccc(Cl)c([N+](=O)[O-])c1)c1cc2ccccc2[nH]1` [Example 1-85, N-(4-chloro-3-nitrophenyl)-1H-indole-2-carboxamide] is lower in “Remaining activity % at 10 μM” value: 71.67% for the first, 53.78% for the second.

Compared with `COc1ccccc1NC(=O)Cc1c[nH]c2ccccc12` [Example 1-9, 2-(1H-indol-3-yl)-N-(2-methoxyphenyl)acetamide], `O=C(Cc1c[nH]c2ccccc12)Nc1ccccc1Br` [Example 1-15, N-(2-bromophenyl)-2-(1H-indol-3-yl)acetamide] is lower in “Remaining activity % at 10 μM” value: 80.82% for the first, 30.42% for the second.

Compared with `Cc1cc(C)cc(NC(=O)c2cc3ccccc3[nH]2)c1` [Example 1-104, N-(3,5-dimethylphenyl)-1H-indole-2-carboxamide], `O=C(Nc1ccc(O)c(O)c1)c1cc2cc(F)ccc2[nH]1` [Example 1-110, N-(3,4-dihydroxyphenyl)-5-fluoro-1H-indole-2-carboxamide] is lower in “Remaining activity % at 10 μM” value: 66.73% for the first, 28.85% for the second.

First: O=C(Nc1ccc(Cl)c([N+](=O)[O-])c1)c1c[nH]c2ccccc12 [Example 1-1, N-(4-chloro-3-nitrophenyl)-1H-indole-3-carboxamide]
Second: O=C(Nc1ccc(Cl)c(Cl)c1)c1c[nH]c2ccccc12 [Example 1-4, N-(3,4-dichlorophenyl)-1H-indole-3-carboxamide]
The “Remaining activity % at 10 μM” value of the first is higher: 86.43% for the first, 56.19% for the second.

Compared with `COc1ccc(COC(=O)CCCc2c[nH]c3ccccc23)cc1` [Example 1-117, 4-methoxybenzyl 4-(1H-indol-3-yl)butanoate], `COc1ccc(CNC(=O)CCCc2c[nH]c3ccccc23)cc1` [Example 1-81, 4-(1H-indol-3-yl)-N-(4-methoxybenzyl)butanamide] is lower in “Remaining activity % at 10 μM” value: 72.65% for the first, 59.84% for the second.

Compared with `O=C(CCc1c[nH]c2ccccc12)Nc1cc(F)cc(F)c1` [Example 1-66, N-(3,5-difluorophenyl)-3-(1H-indol-3-yl)propanamide], `O=C(CCc1c[nH]c2ccccc12)Nc1cc(C(F)(F)F)cc(C(F)(F)F)c1` [Example 1-67, N-(3,5-bis(trifluoromethyl)phenyl)-3-(1H-indol-3-yl)propanamide] is lower in “Remaining activity % at 10 μM” value: 84.92% for the first, 29.17% for the second.

First: O=C(CCCc1c[nH]c2ccccc12)Nc1ccc(Cl)c(Cl)c1 [Example 1-79, N-(3,4-dichlorophenyl)-4-(1H-indol-3-yl)butanamide]
Second: O=C(Cc1c[nH]c2ccccc12)NCc1ccccc1Cl [Example 1-48, N-(2-chlorobenzyl)-2-(1H-indol-3-yl)acetamide]
The “Remaining activity % at 10 μM” value of the first is lower: 61.61% for the first, 75.72% for the second.

Going from `COc1ccc(COC(=O)c2cc3ccccc3[nH]2)cc1` [Example 1-116, 4-methoxybenzyl 1H-indole-2-carboxylate] to `COc1ccc(CNC(=O)Cc2c[nH]c3ccccc23)c(OC)c1` [Example 1-44, N-(2,4-dimethoxybenzyl)-2-(1H-indol-3-yl)acetamide], the “Remaining activity % at 10 μM” value rises from 52.66% to 54.83%.

Compared with `COc1ccc(CNC(=O)c2cc3cc(F)ccc3[nH]2)cc1OC` [Example 1-94, N-(3,4-dimethoxybenzyl)-5-fluoro-1H-indole-2-carboxamide], `O=C(Cc1c[nH]c2ccccc12)NCc1cccc(F)c1` [Example 1-36, N-(3-fluorobenzyl)-2-(1H-indol-3-yl)acetamide] is higher in “Remaining activity % at 10 μM” value: 53.46% for the first, 76.23% for the second.

With `O=C(Cc1c[nH]c2ccccc12)Nc1ccc(Br)cn1` [Example 1-21, N-(5-bromopyridin-2-yl)-2-(1H-indol-3-yl)acetamide] the “Remaining activity % at 10 μM” value was 46.59%.
